Assays:
Type in all cases: cell-based
IL-2 = IL-2 ELISA of co-culture supernatants of SMART-CAR expressing Jurkat T-cells; settings: CD19 positive Raji cells; 1:3 ratio; 4 hours; 250 nM dFKBP7
Experimental: FIG. 35 is a histogram bar plot quantifying IL-2 levels produced from SMART-CAR expressing Jurkat T-cells after co-incubation with antigen expressing K562 cells in a 1:3 ratio (T cell to K562 cell) for 24 hours as described in Example 29. IL-2 levels were quantified by ELISA using co-culture supernatants.
FIG. 36 is a histogram bar plot quantifying IL-2 levels produced from SMART-CAR expressing Jurkat T-cells after co-incubation with CD19 positive Raji cells in a 1:3 ratio (T cells to Raji cells) for 4 hours.
FIG. 35 illustrates the specificity in activation of SMART-CAR expressing T-cells for CD19 expressing target tumor cells. SMART-CAR expressing Jurkat T-cells were co-incubated with antigen expressing K562 cells in a 1:3 ratio (T cell to K562 cell) for 24 hours. IL-2 levels were quantified by ELISA using co-culture supernatants.
FIG. 36 illustrates the chemical control of SMART-CAR expressing T-cell activation using the hetero bifunctional molecule dFKBP7. SMART-CAR expressing Jurkat T-cells were co-incubated with CD19 positive Raji cells in a 1:3 ratio.

FKBP12WT = target: T1, FKBP12WT (Homo sapiens, UniProt P62942); assay: Immunoblot of wild type FKBP12 degradation in 293FT cells (CRBN-WT or CRBN-/-); settings: 4 hours
T1 construct: HA; expressed in transfected cells; host or cells: 293FT cells (CRBN-WT or CRBN-/-)
T1 sequence (P62942 whole entry): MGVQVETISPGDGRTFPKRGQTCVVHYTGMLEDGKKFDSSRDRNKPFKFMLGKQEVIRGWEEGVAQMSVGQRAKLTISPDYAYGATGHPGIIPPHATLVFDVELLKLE
Experimental: FIG. 6 is an immunoblot of cells treated with bi-functional molecules described in the present invention.
The dTAG is predicated on the selectivity of FKBP* specific ligands over endogenous, wild type FKBP. […] An immunoblot of cells treated with bi-functional molecules described in the present invention was performed. 293FT cells (CRBN-WT or CRBN−/−) expressing either HA-tagged FKBP12WT or FKBP* were treated with indicated concentrations of dFKBP7 for 4 hours.
Isogenic 293FT cells (CRBN-WT or CRBN−/−) were engineered to express either FKBP12WT or FKBP*. Cells were treated with 100 nM of either dFKBP7 or dFKBP13 for 4 hours before lysates were prepared for western immunoblot analysis.

CD19-CAR-dTAG = target: T2, CD19-CAR-dTAG (Homo sapiens, UniProt P62942+Q96SW2, F37V/H95N/M50V/V99I); assay: Immunoblot of CD19-CAR-dTAG degradation in Jurkat T-cells
T2 construct: HA; expressed in transfected cells; host or cells: Jurkat T-cells, lentiviral transduction, blasticidin selection
T2 sequence (P62942 with tags, fused parts or gaps F37V/M50V/H95N/V99I limits assumed): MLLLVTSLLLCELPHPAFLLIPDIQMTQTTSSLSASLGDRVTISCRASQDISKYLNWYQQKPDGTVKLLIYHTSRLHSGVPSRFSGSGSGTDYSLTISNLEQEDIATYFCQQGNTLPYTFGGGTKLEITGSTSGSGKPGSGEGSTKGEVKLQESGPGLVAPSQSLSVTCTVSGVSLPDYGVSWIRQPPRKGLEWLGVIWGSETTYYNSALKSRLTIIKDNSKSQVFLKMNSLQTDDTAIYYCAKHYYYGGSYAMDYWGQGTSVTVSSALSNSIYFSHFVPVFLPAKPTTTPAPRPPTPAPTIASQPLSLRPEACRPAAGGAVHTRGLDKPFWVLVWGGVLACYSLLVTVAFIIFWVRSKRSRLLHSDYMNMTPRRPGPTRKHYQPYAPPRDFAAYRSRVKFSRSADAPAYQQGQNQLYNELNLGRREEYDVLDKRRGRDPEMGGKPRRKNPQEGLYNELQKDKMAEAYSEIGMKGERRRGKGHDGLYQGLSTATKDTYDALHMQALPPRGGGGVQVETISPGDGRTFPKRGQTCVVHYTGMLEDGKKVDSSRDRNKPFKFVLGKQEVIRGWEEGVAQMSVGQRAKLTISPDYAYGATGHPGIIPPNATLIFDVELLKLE
T2 sequence (Q96SW2 whole entry): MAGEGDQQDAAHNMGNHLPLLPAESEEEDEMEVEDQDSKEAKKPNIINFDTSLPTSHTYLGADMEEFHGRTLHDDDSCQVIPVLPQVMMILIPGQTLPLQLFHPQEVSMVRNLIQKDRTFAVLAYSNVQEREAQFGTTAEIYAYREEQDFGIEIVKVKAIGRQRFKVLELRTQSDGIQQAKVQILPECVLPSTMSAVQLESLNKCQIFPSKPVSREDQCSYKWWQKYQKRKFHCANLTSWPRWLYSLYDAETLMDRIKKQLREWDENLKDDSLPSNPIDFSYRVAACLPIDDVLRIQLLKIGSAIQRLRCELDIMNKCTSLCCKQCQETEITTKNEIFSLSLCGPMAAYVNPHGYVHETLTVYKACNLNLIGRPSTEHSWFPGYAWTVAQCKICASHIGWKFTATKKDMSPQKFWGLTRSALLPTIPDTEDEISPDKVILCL
T2 sequence (Q16531 whole entry partner): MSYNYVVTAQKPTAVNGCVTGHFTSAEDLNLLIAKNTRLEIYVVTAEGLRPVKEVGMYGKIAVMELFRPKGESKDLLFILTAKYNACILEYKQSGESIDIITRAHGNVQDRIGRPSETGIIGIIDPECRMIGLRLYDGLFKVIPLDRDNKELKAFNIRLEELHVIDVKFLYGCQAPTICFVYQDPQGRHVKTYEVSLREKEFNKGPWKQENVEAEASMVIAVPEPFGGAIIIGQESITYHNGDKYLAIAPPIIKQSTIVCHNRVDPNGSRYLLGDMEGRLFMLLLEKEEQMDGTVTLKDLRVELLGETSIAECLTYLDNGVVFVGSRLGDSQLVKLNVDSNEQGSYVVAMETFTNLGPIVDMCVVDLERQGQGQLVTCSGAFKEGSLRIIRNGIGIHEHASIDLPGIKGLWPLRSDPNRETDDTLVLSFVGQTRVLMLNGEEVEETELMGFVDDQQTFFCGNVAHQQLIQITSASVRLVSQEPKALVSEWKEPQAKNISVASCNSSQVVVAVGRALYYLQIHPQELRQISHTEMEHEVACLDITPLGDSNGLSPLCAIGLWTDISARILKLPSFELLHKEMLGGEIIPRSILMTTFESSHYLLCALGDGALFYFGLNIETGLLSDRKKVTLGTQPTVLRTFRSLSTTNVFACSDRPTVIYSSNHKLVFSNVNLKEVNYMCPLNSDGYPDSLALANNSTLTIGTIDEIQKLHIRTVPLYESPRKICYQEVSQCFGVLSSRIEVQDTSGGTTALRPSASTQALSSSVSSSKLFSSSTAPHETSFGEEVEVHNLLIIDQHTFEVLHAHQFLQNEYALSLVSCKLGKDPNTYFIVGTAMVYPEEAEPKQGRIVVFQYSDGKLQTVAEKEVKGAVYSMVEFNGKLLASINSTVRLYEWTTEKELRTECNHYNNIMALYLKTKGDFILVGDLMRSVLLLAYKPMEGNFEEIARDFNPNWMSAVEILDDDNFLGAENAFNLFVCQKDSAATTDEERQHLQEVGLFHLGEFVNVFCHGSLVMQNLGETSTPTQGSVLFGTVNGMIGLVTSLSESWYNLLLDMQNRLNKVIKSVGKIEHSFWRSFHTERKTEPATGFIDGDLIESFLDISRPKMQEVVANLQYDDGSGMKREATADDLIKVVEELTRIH
Experimental: FIG. 14A and FIG. 14B are immunoblots of cells treated with heterobifunctional compounds described in the present invention.
FIG. 15A and FIG. 15B are immunoblots of cells treated with bi-functional molecules described in the present invention.
FIG. 16 is an immunoblot of cells treated with heterobifunctional compounds described in the present invention.
At 4 and 12 hours, the dFKBP7 was washed out of the Jurkat cells. At each indicated timepoint, Jurkat cells were harvest to monitor CD19-CAR-dTAG expression levels via immunoblot analysis. FIG. 17B is the resulting immunoblot from the experimental design in FIG. 17A.
Jurkat T-cells were transduced with lentivirus expressing CD19-CAR-dTAG. Cells were selected with blasticidin and expanded.
Jurkat T-cells were engineered to express CD19-CAR-dTAG. Cells were treated with the indicated dose of dFKBP7 or dFKBP13 for 4 hours before lysates were prepared for western immunoblot analysis.
Jurkat T-cells were engineered to express CD19-CAR-dTAG. Cells were treated with 250 nM dFKBP7 or dFKBP13 for the indicated time before lysates were prepared for immunoblot analysis.
At 4 and 12 hours, the dFKBP7 was washed out of the Jurkat cells. At each indicated timepoint, Jurkat cells were harvest to monitor CD19-CAR-dTAG expression levels via immunoblot analysis.

## CC[C@H](C(=O)N1CCCC[C@H]1C(=O)O[C@H](CCc1ccc(OC)c(OC)c1)c1cccc(OCC(=O)NCCCOCCOCCOCCCNC(=O)COc2cccc3c2C(=O)N(C2CCC(=O)NC2=O)C3=O)c1)c1cc(OC)c(OC)c(OC)c1 (stereo partly shown) [dFKBP7]
IL-2
  IL-2 production: completely suppressed
FKBP12WT; 293FT cells CRBN-WT or CRBN-/-, indicated concentrations
  Degradation of HA-tagged FKBP12WT (immunoblot): not FKBPWT
FKBP12WT; isogenic 293FT cells CRBN-WT or CRBN-/-, 100 nM
  Degradation of FKBP12WT or endogenous FKBP12 (immunoblot): not FKBP12WT or endogenous FKBP12
CD19-CAR-dTAG; Jurkat T-cells, 250 nM for 4 hours, then washouts
  Re-expression of CD19-CAR-dTAG protein after washout: recovered
CD19-CAR-dTAG; Jurkat T-cells, 250 nM, indicated time
  Degradation of CD19-CAR-dTAG, time dependence: time-dependent degradation of CD19-CAR-dTAG
CD19-CAR-dTAG; Jurkat T-cells, indicated dose, 4 hours
  Degradation of CD19-CAR-dTAG, dose dependence: dose-dependent degradation of CD19-CAR-dTAG
CD19-CAR-dTAG; Jurkat cells, 250 nM at 0 and 8 hours, washed out at 4 and 12 hours
  Rheostat chemical control of CD19-CAR-dTAG expression: exquisite chemical control of CD19-CAR-dTAG protein levels allowing for modulation within hours

— patent US11311609B2, “Regulating chimeric antigen receptors” (DANA-FARBER CANCER INSTITUTE, INC., priority 2017, dated 2022)
